Reference: the NIST ThermoML archive (doi:10.1016/j.fluid.2019.06.022)
Values joined by “and” are separate entries in the source; they are usually repeats but may differ in a detail not shown here. Identical values can stand only once. ± gives the expanded uncertainty stated by the source.

Test: xn = mol fraction of the nth substance listed
Details: Liquid; for mass density: Bellows volumetry; for viscosity: Falling or rolling sphere viscometry

C=CC [propene] + Cc1ccccc1
Details | mass density, x1 = 0.0787 | mass density, x1 = 0.3073 | viscosity, x1 = 0.0787 | viscosity, x1 = 0.3073
376.9 K, 3100 kPa | 760.8 ± 18 kg/m3 | – | 0.253 ± 0.01 mPa·s | –
376.9 K, 3200 kPa | 760.8 ± 18 kg/m3 | – | 0.252 ± 0.01 mPa·s | –
376.9 K, 3900 kPa | 762.5 ± 18 kg/m3 | – | 0.26 ± 0.011 mPa·s | –
376.9 K, 8400 kPa | 767 ± 18 kg/m3 | – | 0.264 ± 0.011 mPa·s | –
376.9 K, 8500 kPa | 767 ± 18 kg/m3 | – | 0.267 ± 0.011 mPa·s | –
376.9 K, 8600 kPa | 767 ± 18 kg/m3 | – | 0.267 ± 0.011 mPa·s | –
376.9 K, 8700 kPa | 767.3 ± 18 kg/m3 | – | 0.269 ± 0.011 mPa·s | –
376.9 K, 14300 kPa | 774.1 ± 19 kg/m3 | – | 0.282 ± 0.012 mPa·s | –
376.9 K, 14600 kPa | 774.1 ± 19 kg/m3 | – | 0.283 ± 0.012 mPa·s | –
376.9 K, 26800 kPa | 786.3 ± 19 kg/m3 | – | 0.314 ± 0.013 mPa·s | –
376.9 K, 27000 kPa | 786.3 ± 19 kg/m3 | – | 0.312 ± 0.013 mPa·s | –
376.9 K, 27200 kPa | 786.6 ± 19 kg/m3 | – | 0.312 ± 0.013 mPa·s | –
376.9 K, 27400 kPa | 786.6 ± 19 kg/m3 | – | 0.317 ± 0.013 mPa·s and 0.312 ± 0.013 mPa·s | –
376.9 K, 27600 kPa | 786.6 ± 19 kg/m3 | – | 0.317 ± 0.013 mPa·s | –
376.9 K, 41000 kPa | 799.3 ± 19 kg/m3 and 798.4 ± 19 kg/m3 | – | 0.352 ± 0.014 mPa·s and 0.349 ± 0.014 mPa·s | –
376.9 K, 41200 kPa | 798.4 ± 19 kg/m3 and 799.3 ± 19 kg/m3 | – | 0.345 ± 0.014 mPa·s and 0.353 ± 0.014 mPa·s | –
376.9 K, 55500 kPa | 810.5 ± 20 kg/m3 | – | 0.376 ± 0.015 mPa·s | –
376.9 K, 55800 kPa | 810.5 ± 20 kg/m3 | – | 0.386 ± 0.016 mPa·s | –
376.9 K, 68600 kPa | 819.9 ± 20 kg/m3 | – | 0.419 ± 0.017 mPa·s | –
376.9 K, 68900 kPa | 819.9 ± 20 kg/m3 | – | 0.418 ± 0.017 mPa·s | –
440.5 K, 3600 kPa | – | 599.7 ± 14 kg/m3 | – | 0.12 ± 0.005 mPa·s and 0.121 ± 0.005 mPa·s
440.5 K, 7500 kPa | – | 612.2 ± 15 kg/m3 | – | 0.129 ± 0.005 mPa·s
440.5 K, 7600 kPa | – | 612.2 ± 15 kg/m3 | – | 0.129 ± 0.005 mPa·s
440.5 K, 20300 kPa | – | 642.2 ± 15 kg/m3 | – | 0.15 ± 0.006 mPa·s
440.5 K, 37200 kPa | – | 669.5 ± 16 kg/m3 | – | 0.176 ± 0.007 mPa·s and 0.177 ± 0.007 mPa·s
440.5 K, 37400 kPa | – | 669.5 ± 16 kg/m3 | – | 0.174 ± 0.007 mPa·s
440.5 K, 37500 kPa | – | 669.5 ± 16 kg/m3 | – | 0.178 ± 0.007 mPa·s
440.5 K, 50100 kPa | – | 683.9 ± 16 kg/m3 | – | 0.195 ± 0.008 mPa·s
440.5 K, 50200 kPa | – | 683.8 ± 16 kg/m3 | – | 0.193 ± 0.008 mPa·s
440.5 K, 68600 kPa | – | 703.5 ± 17 kg/m3 | – | 0.221 ± 0.009 mPa·s
440.5 K, 68700 kPa | – | 703.5 ± 17 kg/m3 | – | 0.222 ± 0.009 mPa·s
443 K, 3200 kPa | 691.9 ± 17 kg/m3 | – | 0.152 ± 0.006 mPa·s | –
443 K, 3300 kPa | 691.6 ± 17 kg/m3 | – | 0.151 ± 0.006 mPa·s | –
443 K, 10500 kPa | 706.3 ± 17 kg/m3 | – | 0.17 ± 0.007 mPa·s and 0.166 ± 0.007 mPa·s | –
443 K, 15100 kPa | 714.5 ± 17 kg/m3 | – | 0.178 ± 0.007 mPa·s | –
443 K, 15300 kPa | 714.5 ± 17 kg/m3 | – | 0.178 ± 0.007 mPa·s | –
443 K, 27100 kPa | 732.1 ± 18 kg/m3 | – | 0.201 ± 0.008 mPa·s | –
443 K, 27200 kPa | 732.1 ± 18 kg/m3 | – | 0.2 ± 0.008 mPa·s and 0.201 ± 0.008 mPa·s | –
443 K, 27300 kPa | 731.8 ± 18 kg/m3 | – | 0.201 ± 0.008 mPa·s | –
443 K, 37600 kPa | 745.3 ± 18 kg/m3 | – | 0.221 ± 0.009 mPa·s | –
443 K, 37800 kPa | 745.3 ± 18 kg/m3 | – | 0.218 ± 0.009 mPa·s | –
443 K, 47900 kPa | 756.2 ± 18 kg/m3 | – | 0.243 ± 0.01 mPa·s and 0.244 ± 0.01 mPa·s | –
443 K, 64800 kPa | 772.1 ± 18 kg/m3 | – | 0.271 ± 0.011 mPa·s | –
443 K, 65000 kPa | 772.4 ± 18 kg/m3 | – | 0.271 ± 0.011 mPa·s | –
529.2 K, 35300 kPa | – | 593.8 ± 14 kg/m3 | – | 0.119 ± 0.005 mPa·s and 0.12 ± 0.005 mPa·s
529.2 K, 49000 kPa | – | 619 ± 15 kg/m3 and 619.1 ± 15 kg/m3 | – | 0.132 ± 0.005 mPa·s and 0.135 ± 0.006 mPa·s
529.2 K, 68500 kPa | – | 647.6 ± 16 kg/m3 | – | 0.156 ± 0.006 mPa·s
529.2 K, 68600 kPa | – | 647.5 ± 16 kg/m3 | – | 0.153 ± 0.006 mPa·s
531.1 K, 7200 kPa | 599.1 ± 14 kg/m3 | – | 0.091 ± 0.004 mPa·s | –
531.1 K, 19200 kPa | 641.3 ± 15 kg/m3 | – | 0.114 ± 0.005 mPa·s | –
531.1 K, 19400 kPa | 641.1 ± 15 kg/m3 | – | 0.113 ± 0.005 mPa·s | –
531.1 K, 31900 kPa | 669.1 ± 16 kg/m3 and 669.7 ± 16 kg/m3 and 669.3 ± 16 kg/m3 | – | 0.133 ± 0.005 mPa·s and 0.134 ± 0.005 mPa·s | –
531.1 K, 32000 kPa | 670.2 ± 16 kg/m3 | – | 0.133 ± 0.006 mPa·s | –
531.1 K, 32100 kPa | 670 ± 16 kg/m3 | – | 0.131 ± 0.005 mPa·s | –
531.1 K, 32200 kPa | 670.2 ± 16 kg/m3 | – | 0.136 ± 0.006 mPa·s | –
531.1 K, 41400 kPa | 685 ± 16 kg/m3 | – | 0.148 ± 0.006 mPa·s | –
531.1 K, 41500 kPa | 685 ± 16 kg/m3 and 685.2 ± 16 kg/m3 | – | 0.145 ± 0.006 mPa·s and 0.148 ± 0.006 mPa·s | –
531.1 K, 41600 kPa | 685.2 ± 16 kg/m3 | – | 0.146 ± 0.006 mPa·s | –
531.1 K, 53300 kPa | 702.3 ± 17 kg/m3 and 701.5 ± 17 kg/m3 | – | 0.165 ± 0.007 mPa·s | –
531.1 K, 53400 kPa | 701.7 ± 17 kg/m3 and 702.5 ± 17 kg/m3 | – | 0.164 ± 0.007 mPa·s and 0.165 ± 0.007 mPa·s | –
531.1 K, 67100 kPa | 718.1 ± 17 kg/m3 | – | 0.18 ± 0.007 mPa·s | –
531.1 K, 67200 kPa | 718.6 ± 17 kg/m3 | – | 0.179 ± 0.007 mPa·s | –
